PubChem BioAssay AID248 (DTP/NCI, 2004)
“And” between values parts separate entries of the source, which are not always exact repeats. Identical values can stand only once. Toxic doses and inconclusive results are not listed. No stated cut-off is given here; in the data, active means T/C of 150% or more; inactive means T/C below 125%.

System: L1210 leukemia ip in BDF1 mice, survival T/C
Assay: NCI In Vivo Anticancer Drug Screen. Data for tumor model L1210 Leukemia (intraperitoneal) in B6D2F1 (BDF1) mice
Details: endpoint: mean survival time, higher = longer survival
Method in brief: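 Antitumor effect is assessed in tumor-bearing animals. Survival in the compound arm is compared with a vehicle-dosed control arm and expressed as their quotient.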

[1] = dose: 100.0 mg/kg/injection, schedule: Q04DX003 (ip), vehicle: saline with Tween-80
[2] = dose: 200.0 mg/kg/injection, schedule: Q04DX003 (ip), vehicle: saline with Tween-80
[3] = dose: 100.0 mg/kg/injection, schedule: Q04DX002 (ip), vehicle: Klucel (hydroxypropylcellulose) (HPC)
[4] = dose: 100.0 mg/kg/injection, schedule: Q04DX003 (ip), vehicle: Klucel (hydroxypropylcellulose) (HPC)
[5] = dose: 200.0 mg/kg/injection, schedule: Q04DX003 (ip), vehicle: Klucel (hydroxypropylcellulose) (HPC)
[6] = dose: 400.0 mg/kg/injection, schedule: Q04DX003 (ip), vehicle: Klucel (hydroxypropylcellulose) (HPC)
[7] = dose: 400.0 mg/kg/injection, schedule: Q04DX003 (ip), vehicle: saline with Tween-80

Measured: T/C

NC(=O)Nc1ccc2c(c1)Cc1cc(F)ccc1-2
inactive: dose: 87.0 mg/kg/injection, schedule: Q01DX001 (ip), vehicle: other 100 % of control | dose: 89.0 mg/kg/injection, schedule: Q01DX001 (ip), vehicle: carboxymethylcellulose (CMC) 97 % of control and 109 % of control | dose: 100.0 mg/kg/injection, schedule: Q01DX001 (ip), vehicle: carboxymethylcellulose (CMC) 97 % of control | dose: 132.0 mg/kg/injection, schedule: Q01DX001 (ip), vehicle: other 97 % of control | dose: 133.0 mg/kg/injection, schedule: Q01DX001 (ip), vehicle: carboxymethylcellulose (CMC) 100 % of control and 112 % of control | dose: 200.0 mg/kg/injection, schedule: Q01DX001 (ip), vehicle: carboxymethylcellulose (CMC) 104 % of control and 105 % of control | dose: 200.0 mg/kg/injection, schedule: Q01DX001 (ip), vehicle: other 92 % of control | dose: 300.0 mg/kg/injection, schedule: Q01DX001 (ip), vehicle: carboxymethylcellulose (CMC) 101 % of control and 108 % of control | dose: 300.0 mg/kg/injection, schedule: Q01DX001 (ip), vehicle: other 97 % of control | dose: 400.0 mg/kg/injection, schedule: Q01DX001 (ip), vehicle: carboxymethylcellulose (CMC) 105 % of control

Cc1nc2ccc(Cl)c(Cl)c2s1
inactive: dose: 100.0 mg/kg/injection, schedule: Q01DX001 (ip), vehicle: saline with Tween-80 106 % of control | dose: 200.0 mg/kg/injection, schedule: Q01DX001 (ip), vehicle: saline with Tween-80 104 % of control | dose: 400.0 mg/kg/injection, schedule: Q01DX001 (ip), vehicle: saline with Tween-80 100 % of control

CCCCCCCCN(C)N=Nc1ccc(C(N)=O)cc1
inactive: dose: 118.0 mg/kg/injection, schedule: Q01DX009 (ip), vehicle: Klucel (hydroxypropylcellulose) (HPC) 122 % of control | dose: 175.0 mg/kg/injection, schedule: Q01DX009 (ip), vehicle: Klucel (hydroxypropylcellulose) (HPC) 115 % of control

COc1ccccc1NC(=S)N(C)C
inactive: [1] 96 % of control | [2] 93 % of control

Cc1nnc(/N=C/c2ccccc2)n1/N=C/c1ccccc1
inactive: dose: 25.0 mg/kg/injection, schedule: Q04DX002 (ip), vehicle: Klucel (hydroxypropylcellulose) (HPC) 90 % of control | dose: 50.0 mg/kg/injection, schedule: Q04DX002 (ip), vehicle: Klucel (hydroxypropylcellulose) (HPC) 90 % of control | [3] 96 % of control

Cc1c(N=Cc2ccccc2)c(=O)n(-c2ccccc2)n1C
inactive: dose: 100.0 mg/kg/injection, schedule: Q01DX009 (ip), vehicle: gum acacia 104 % of control | dose: 100.0 mg/kg/injection, schedule: Q04DX003 (ip), vehicle: gum acacia 100 % of control | dose: 200.0 mg/kg/injection, schedule: Q04DX003 (ip), vehicle: gum acacia 95 % of control | dose: 400.0 mg/kg/injection, schedule: Q01DX009 (ip), vehicle: gum acacia 88 % of control | dose: 400.0 mg/kg/injection, schedule: Q04DX003 (ip), vehicle: gum acacia 95 % of control

Nc1c(F)c(F)c(-c2c(F)c(F)c(N)c(F)c2F)c(F)c1F
inactive: dose: 37.5 mg/kg/injection, schedule: Q04DX003 (ip), vehicle: saline with Tween-80 98 % of control | dose: 75.0 mg/kg/injection, schedule: Q04DX003 (ip), vehicle: saline with Tween-80 102 % of control | dose: 150.0 mg/kg/injection, schedule: Q04DX003 (ip), vehicle: saline with Tween-80 95 % of control

C=C1C2CCC(C2)C1(C)CC/C=C(/C)CO (stereo unspecified) (tested in a mixture with another compound)
inactive: [4] 96 % of control | [5] 96 % of control | [6] 93 % of control

COc1cc(CC#N)c(OC)cc1CC#N
inactive: dose: 100.0 mg/kg/injection, schedule: Q01DX009 (ip), vehicle: saline with Tween-80 94 % of control | [1] 89 % of control | dose: 200.0 mg/kg/injection, schedule: Q01DX009 (ip), vehicle: saline with Tween-80 89 % of control | [2] 89 % of control | dose: 400.0 mg/kg/injection, schedule: Q01DX009 (ip), vehicle: saline with Tween-80 99 % of control | [7] 88 % of control

CSc1ncc(CO)c(N2CC2)n1
inactive: dose: 100.0 mg/kg/injection, schedule: Q01DX Z (ip), vehicle: methylcellulose (MC) 87 % of control

ClCc1c(CCl)c2c(c3c1CCCC3)CCCC2
inactive: [4] 100 % of control | [5] 100 % of control | [6] 103 % of control

Nc1cc(S(=O)(=O)O)cc2cc(S(=O)(=O)O)cc(O)c12
inactive: dose: 50.0 mg/kg/injection, schedule: Q04DX002 (ip), vehicle: saline 92 % of control | dose: 100.0 mg/kg/injection, schedule: Q04DX002 (ip), vehicle: saline 100 % of control and 118 % of control | dose: 200.0 mg/kg/injection, schedule: Q04DX002 (ip), vehicle: saline 92 % of control | dose: 400.0 mg/kg/injection, schedule: Q04DX002 (ip), vehicle: saline 122 % of control and 92 % of control

CCCOP(=O)(OCCC)C(OC(=O)C(C)(C)Br)=C(C)C
inactive: [1] 100 % of control | [2] 100 % of control | [7] 100 % of control

COc1ccc2c(ccc3ccc4ccccc4c32)c1
inactive: dose: 100.0 mg/kg/injection, schedule: Q01DX001 (ip), vehicle: Klucel (hydroxypropylcellulose) (HPC) 105 % of control | dose: 200.0 mg/kg/injection, schedule: Q01DX001 (ip), vehicle: Klucel (hydroxypropylcellulose) (HPC) 102 % of control | dose: 400.0 mg/kg/injection, schedule: Q01DX001 (ip), vehicle: Klucel (hydroxypropylcellulose) (HPC) 100 % of control

CON1C(=O)c2ccccc2S1=O (stereo unspecified)
inactive: [3] 96 % of control | dose: 200.0 mg/kg/injection, schedule: Q04DX002 (ip), vehicle: Klucel (hydroxypropylcellulose) (HPC) 92 % of control

Cc1cccc(C(C)(C)C)c1O
inactive: [1] 102 % of control | [2] 91 % of control | [7] 94 % of control

CC(=O)C(C)=O
inactive: [1] 95 % of control | [2] 101 % of control | [7] 106 % of control

CN1CCC(=C2c3ccccc3C=Cc3ccccc32)CC1
inactive: dose: 6.25 mg/kg/injection, schedule: Q01DX009 (ip), vehicle: saline 95 % of control | dose: 12.5 mg/kg/injection, schedule: Q01DX009 (ip), vehicle: saline 90 % of control | dose: 25.0 mg/kg/injection, schedule: Q01DX009 (ip), vehicle: saline 95 % of control | dose: 25.0 mg/kg/injection, schedule: Q04DX003 (ip), vehicle: saline 96 % of control | dose: 50.0 mg/kg/injection, schedule: Q01DX009 (ip), vehicle: saline 98 % of control | dose: 100.0 mg/kg/injection, schedule: Q04DX003 (ip), vehicle: saline 102 % of control

CC(=O)c1c(O)c(Br)c(C)oc1=O (tested in a mixture with another compound)
inactive: dose: 6.25 mg/kg/injection, schedule: Q01DX009 (ip), vehicle: saline with Tween-80 89 % of control | dose: 12.5 mg/kg/injection, schedule: Q01DX009 (ip), vehicle: saline with Tween-80 100 % of control | dose: 25.0 mg/kg/injection, schedule: Q01DX009 (ip), vehicle: saline with Tween-80 93 % of control

O=c1[nH]cnc2nc(-c3ccc(Cl)cc3)c(-c3ccc(Cl)cc3)nc12
inactive: dose: 50.0 mg/kg/injection, schedule: Q01DX009 (ip), vehicle: Klucel (hydroxypropylcellulose) (HPC) 92 % of control | dose: 100.0 mg/kg/injection, schedule: Q01DX009 (ip), vehicle: Klucel (hydroxypropylcellulose) (HPC) 103 % of control | dose: 200.0 mg/kg/injection, schedule: Q01DX009 (ip), vehicle: Klucel (hydroxypropylcellulose) (HPC) 92 % of control
